According to patent publication US9296704B2, “Substituted pyrimidines as protein kinase inhibitors” (CELGENE AVILOMICS RESEARCH, INC., priority 2007, dated 2016):

Experiments:
EGFR (T790M/L858R) = target: T1, EGFR (T790M/L858R) (Homo sapiens, UniProt P00533, L858R/T790M); assay: Omnia continuous-read kinase assay, EGFR (T790M/L858R); type: biochemical; conditions: read-out: EGFR (T790M/L858R) inhibiton
T1 construct: purchased BPS Bioscience 40350
How it was run: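 Enzyme pre-incubated 30 min at 27 °C with compound, then ATP/Y12-Sox peptide added; fluorescence (ex360/em485) read continuously 60 min in 20 mM Tris pH 7.5, 5 mM MgCl2, 0.2 mM DTT. WT: 5 nM enzyme, […]; T790M/L858R: 3 nM enzyme, […]. IC50 from initial velocities, variable-slope fit.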

BTK = BTK (Homo sapiens, UniProt Q06187); assay: Omnia assay for potency against BTK; type: biochemical; conditions: read-out: BTK Inhibition
How it was run: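 BTK (5 nM) was pre-incubated 30 min at 27° C with serially diluted compounds in Tris pH 7.5/MgCl2 buffer, then started with […] and Y5-Sox peptide 10 mM (ATP KMapp ~36 mM). Fluorescence (ex360/em485) was read continuously over 60 min. IC50 came from initial velocities using a variable-slope fit.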

[1] = test system: BTK signaling in Ramos cells; assay: BTK Ramos cellular assay (PLCγ2 phosphorylation); type: cell-based; conditions: Homo sapiens; for IC50: Ramos cells, PLCγ2 phosphorylation, read-out: BTK Inhibition
BMX = target: T2, BMX (Homo sapiens, UniProt P51813); assay: Omnia assay for potency against BMX; type: biochemical; conditions: read-out: BMX inhibition
T2 sequence (P51813 1-675): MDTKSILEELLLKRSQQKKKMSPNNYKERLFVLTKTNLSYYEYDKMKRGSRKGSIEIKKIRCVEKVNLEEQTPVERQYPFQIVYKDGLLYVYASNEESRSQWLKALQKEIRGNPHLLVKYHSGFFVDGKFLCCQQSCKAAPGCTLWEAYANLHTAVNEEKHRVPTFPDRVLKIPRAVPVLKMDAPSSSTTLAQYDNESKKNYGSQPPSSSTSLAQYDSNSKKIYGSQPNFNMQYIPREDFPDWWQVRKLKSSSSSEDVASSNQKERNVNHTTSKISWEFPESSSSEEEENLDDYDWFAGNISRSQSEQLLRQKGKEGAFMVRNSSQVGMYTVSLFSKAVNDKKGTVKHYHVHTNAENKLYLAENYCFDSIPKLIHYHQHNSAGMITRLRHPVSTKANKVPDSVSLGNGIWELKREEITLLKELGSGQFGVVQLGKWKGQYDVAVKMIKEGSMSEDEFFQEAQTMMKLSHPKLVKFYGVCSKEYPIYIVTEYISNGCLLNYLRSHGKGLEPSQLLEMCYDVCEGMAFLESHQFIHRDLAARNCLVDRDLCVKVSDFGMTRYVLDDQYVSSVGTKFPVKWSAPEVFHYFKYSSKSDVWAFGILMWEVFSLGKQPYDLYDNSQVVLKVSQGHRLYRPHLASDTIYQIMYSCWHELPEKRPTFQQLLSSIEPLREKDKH

Chain of BTK (Q06187 whole entry): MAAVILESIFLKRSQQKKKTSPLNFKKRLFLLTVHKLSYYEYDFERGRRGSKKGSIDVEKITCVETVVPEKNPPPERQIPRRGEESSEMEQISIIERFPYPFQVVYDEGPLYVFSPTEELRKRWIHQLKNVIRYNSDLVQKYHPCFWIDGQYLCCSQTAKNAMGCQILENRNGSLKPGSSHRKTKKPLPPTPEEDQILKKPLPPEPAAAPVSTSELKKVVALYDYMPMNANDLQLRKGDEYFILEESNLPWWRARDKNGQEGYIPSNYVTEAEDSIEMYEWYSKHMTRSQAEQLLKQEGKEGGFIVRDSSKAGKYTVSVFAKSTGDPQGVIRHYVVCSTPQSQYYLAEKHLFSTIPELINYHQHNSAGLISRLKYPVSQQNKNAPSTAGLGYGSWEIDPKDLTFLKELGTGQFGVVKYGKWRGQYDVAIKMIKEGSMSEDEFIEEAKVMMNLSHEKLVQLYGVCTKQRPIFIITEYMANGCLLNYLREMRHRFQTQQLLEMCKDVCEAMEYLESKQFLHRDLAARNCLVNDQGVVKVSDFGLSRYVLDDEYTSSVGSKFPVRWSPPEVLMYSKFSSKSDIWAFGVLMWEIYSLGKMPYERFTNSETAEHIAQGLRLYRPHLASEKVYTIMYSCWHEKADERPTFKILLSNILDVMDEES
T1 sequence (P00533 25-1210 T790M/L858R): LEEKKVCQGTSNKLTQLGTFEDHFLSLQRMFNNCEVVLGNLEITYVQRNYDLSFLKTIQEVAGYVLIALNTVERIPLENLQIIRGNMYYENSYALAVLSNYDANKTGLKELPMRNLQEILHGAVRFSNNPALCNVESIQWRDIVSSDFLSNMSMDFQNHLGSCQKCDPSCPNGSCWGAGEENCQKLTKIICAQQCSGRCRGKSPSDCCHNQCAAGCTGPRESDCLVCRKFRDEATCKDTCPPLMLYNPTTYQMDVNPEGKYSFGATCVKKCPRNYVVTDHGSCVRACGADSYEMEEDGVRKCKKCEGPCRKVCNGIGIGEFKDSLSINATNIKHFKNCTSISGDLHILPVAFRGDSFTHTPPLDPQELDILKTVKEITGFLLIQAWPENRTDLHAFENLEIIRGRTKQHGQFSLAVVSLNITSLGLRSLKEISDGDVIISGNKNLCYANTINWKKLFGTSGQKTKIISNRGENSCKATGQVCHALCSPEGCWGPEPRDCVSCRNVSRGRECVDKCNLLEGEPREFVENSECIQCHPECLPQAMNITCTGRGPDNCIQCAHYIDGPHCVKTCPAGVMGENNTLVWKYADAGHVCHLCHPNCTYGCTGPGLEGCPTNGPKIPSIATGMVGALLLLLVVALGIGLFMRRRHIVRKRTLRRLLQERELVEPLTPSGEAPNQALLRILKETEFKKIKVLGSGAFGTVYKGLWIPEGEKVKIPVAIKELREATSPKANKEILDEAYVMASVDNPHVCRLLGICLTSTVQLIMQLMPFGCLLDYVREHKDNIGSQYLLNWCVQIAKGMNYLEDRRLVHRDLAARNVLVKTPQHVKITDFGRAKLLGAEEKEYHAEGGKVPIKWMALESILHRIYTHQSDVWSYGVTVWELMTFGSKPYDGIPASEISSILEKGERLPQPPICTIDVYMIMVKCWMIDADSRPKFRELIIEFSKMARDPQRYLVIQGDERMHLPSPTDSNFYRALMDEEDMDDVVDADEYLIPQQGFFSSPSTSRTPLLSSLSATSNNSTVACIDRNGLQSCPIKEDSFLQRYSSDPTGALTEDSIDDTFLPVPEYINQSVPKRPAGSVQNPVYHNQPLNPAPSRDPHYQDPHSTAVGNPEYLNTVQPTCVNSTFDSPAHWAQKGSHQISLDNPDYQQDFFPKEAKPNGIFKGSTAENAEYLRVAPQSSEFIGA

Row | SMILES | IC50 (EGFR (T790M/L858R)) | IC50 (BTK) | inhibition at 1 µM ([1]; Ramos, at 1 μM, 1 hour) | IC50 [1] | IC50 (BMX)
1 | C=CC(=O)Nc1cccc(Nc2cc(Nc3cccc(Br)c3)ncn2)c1 [I-1, N-{3-[6-(3-bromophenylamino)-pyrimidin-4-ylamino]-phenyl}-2-propenamide] | ≤ 10 nM | 10 to 100 nM | – | – | –
2 | C=CC(=O)Nc1cccc(Nc2cc(Nc3ccc(Oc4ccccc4)cc3)ncn2)c1 [I-13, N-{3-[6-(4-phenoxyphenylamino)-pyrimidin-4-ylamino]phenyl}-2 propenamide] | 10 to 100 nM | ≤ 10 nM | 85% | 10 to 100 nM | ≤ 10 nM
3 | C=CC(=O)Nc1cccc(Nc2cc(Nc3ccc(Oc4ccccc4)cc3)ncn2)n1 [I-63] | ≤ 10 nM | ≤ 10 nM | – | ≤ 10 nM | ≤ 10 nM
4 | CN(C)C/C=C/C(=O)Nc1cccc(Nc2cc(Nc3ccc(Oc4ccccc4)cc3)ncn2)n1 [I-64, (E)-4-(dimethylamino)-N-(6-(6-(4-phenoxyphenylamino)pyrimidin-4-ylamino)pyridine-2-yl)but-2-enamide] | – | ≤ 10 nM | – | 10 to 100 nM | 10 to 100 nM
5 | C=CC(=O)Nc1cccc(Nc2cc(Oc3cccc(C)c3)ncn2)n1 [I-65] | 10 to 100 nM | ≤ 10 nM | – | – | ≤ 10 nM
6 | C=CC(=O)Nc1cccc(Nc2cc(Oc3ccc(Oc4ccccc4)cc3)ncn2)n1 [I-66] | 100 to 1000 nM | ≤ 10 nM | – | – | ≤ 10 nM
7 | C=CC(=O)N(C)c1cccc(Nc2cc(Nc3ccc(Oc4ccccc4)cc3)ncn2)n1 [I-78, N-methyl-N-(6-(6-(4-phenoxyphenylamino)pyrimidin-4-ylamino)pyridin-2-yl)acrylamide] | – | ≤ 10 nM | – | ≤ 10 nM | 10 to 100 nM
8 | CN(C)C/C=C/C(=O)N(C)c1cccc(Nc2cc(Nc3ccc(Oc4ccccc4)cc3)ncn2)n1 [I-79, (E)-4-(dimethylamino)-N-methyl-N-(6-(6-(4-phenoxyphenylamino)pyrimidin-4-ylamino)pyridine-2-yl)but-2-enamide] | – | ≤ 10 nM | – | ≤ 10 nM | ≤ 10 nM
9 | Cc1cccc(Oc2cc(Nc3cccc(NC(=O)/C=C/CN(C)C)n3)ncn2)c1 [I-81] | – | ≤ 10 nM | – | ≤ 10 nM | ≤ 10 nM
10 | C=CC(=O)Nc1cccc(Nc2cc(Nc3ccccc3)ncn2)n1 [I-94] | ≤ 10 nM | ≤ 10 nM | – | – | ≤ 10 nM
